In the supplement of paper PMC10307832:

How the values were obtained:
Test in all cases: relative viability (nuclei count vs DMSO), 5 days (fraction); higher = more cells survive
CX-5461 + Dasatinib = compound: Cc1cnc(CNC(=O)c2c(=O)c3ccc(N4CCCN(C)CC4)nc3n3c2sc2ccccc23)cn1 [CX-5461] + Cc1nc(Nc2ncc(C(=O)Nc3c(C)cccc3Cl)s2)cc(N2CCN(CCO)CC2)n1 [Dasatinib] (partner 0.075 µM)
Procedure, shortened: (§1)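 Five library-drug doses in √10 steps were combined with a fixed anchor-drug dose, or a single drug was given alone, by pin tool to lung cancer cell lines in 1536-well plates the day after seeding. Nuclei were stained and counted after 5 days. Relative viability is the nuclei count in treated wells over that in vehicle wells, taken as the median of duplicate plates.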

IMD-0354 + Trametinib = compound: O=C(Nc1cc(C(F)(F)F)cc(C(F)(F)F)c1)c1cc(Cl)ccc1O [IMD-0354] + CC(=O)Nc1cccc(-n2c(=O)n(C3CC3)c(=O)c3c(Nc4ccc(I)cc4F)n(C)c(=O)c(C)c32)c1 [Trametinib] (partner 0.02 µM)
Procedure, shortened: as §1

IMD-0354 + Foretinib = compound: O=C(Nc1cc(C(F)(F)F)cc(C(F)(F)F)c1)c1cc(Cl)ccc1O [IMD-0354] + COc1cc2c(Oc3ccc(NC(=O)C4(C(=O)Nc5ccc(F)cc5)CC4)cc3F)ccnc2cc1OCCCN1CCOCC1 [Foretinib] (partner 0.25 µM)
Procedure, shortened: as §1

IMD-0354 + Pictilisib = compound: O=C(Nc1cc(C(F)(F)F)cc(C(F)(F)F)c1)c1cc(Cl)ccc1O [IMD-0354] + CS(=O)(=O)N1CCN(Cc2cc3nc(-c4cccc5[nH]ncc45)nc(N4CCOCC4)c3s2)CC1 [Pictilisib] (partner 1 µM)
Procedure, shortened: as §1

HOP-62
relative viability (CX-5461 + Dasatinib; first compound 0.01 µM): 0.724 | relative viability (CX-5461 + Dasatinib; first compound 0.03162 µM): 0.661 | relative viability (CX-5461 + Dasatinib; first compound 0.1 µM): 0.704 | relative viability (CX-5461 + Dasatinib; first compound 0.3162 µM): 0.675 | relative viability (CX-5461 + Dasatinib; first compound 1 µM): 0.489 | relative viability (IMD-0354 + Trametinib; first compound 0.04 µM): 0.405 | relative viability (IMD-0354 + Trametinib; first compound 0.1265 µM): 0.394 | relative viability (IMD-0354 + Trametinib; first compound 0.4 µM): 0.403 | relative viability (IMD-0354 + Trametinib; first compound 1.265 µM): 0.42 | relative viability (IMD-0354 + Trametinib; first compound 4 µM): 0.17 | relative viability (IMD-0354 + Foretinib; first compound 0.04 µM): 1.13 | relative viability (IMD-0354 + Foretinib; first compound 0.1265 µM): 1.03 | relative viability (IMD-0354 + Foretinib; first compound 0.4 µM): 0.42 | relative viability (IMD-0354 + Foretinib; first compound 1.265 µM): 0.449 | relative viability (IMD-0354 + Foretinib; first compound 4 µM): 0.118 | relative viability (IMD-0354 + Pictilisib; first compound 0.04 µM): 0.958 | relative viability (IMD-0354 + Pictilisib; first compound 0.1265 µM): 0.804 | relative viability (IMD-0354 + Pictilisib; first compound 0.4 µM): 0.346 | relative viability (IMD-0354 + Pictilisib; first compound 1.265 µM): 0.237 | relative viability (IMD-0354 + Pictilisib; first compound 4 µM): 0.0877

CAL-12T
relative viability (CX-5461 + Dasatinib; first compound 0.01 µM): 0.521 | relative viability (CX-5461 + Dasatinib; first compound 0.03162 µM): 0.356 | relative viability (CX-5461 + Dasatinib; first compound 0.1 µM): 0.329 | relative viability (CX-5461 + Dasatinib; first compound 0.3162 µM): 0.39 | relative viability (CX-5461 + Dasatinib; first compound 1 µM): 0.205 | relative viability (IMD-0354 + Trametinib; first compound 0.04 µM): 0.333 | relative viability (IMD-0354 + Trametinib; first compound 0.1265 µM): 0.308 | relative viability (IMD-0354 + Trametinib; first compound 0.4 µM): 0.403 | relative viability (IMD-0354 + Trametinib; first compound 1.265 µM): 0.191 | relative viability (IMD-0354 + Trametinib; first compound 4 µM): 0.211 | relative viability (IMD-0354 + Foretinib; first compound 0.04 µM): 1.25 | relative viability (IMD-0354 + Foretinib; first compound 0.1265 µM): 0.844 | relative viability (IMD-0354 + Foretinib; first compound 0.4 µM): 0.638 | relative viability (IMD-0354 + Foretinib; first compound 1.265 µM): 0.486 | relative viability (IMD-0354 + Foretinib; first compound 4 µM): 0.154 | relative viability (IMD-0354 + Pictilisib; first compound 0.04 µM): 0.373 | relative viability (IMD-0354 + Pictilisib; first compound 0.1265 µM): 0.548 | relative viability (IMD-0354 + Pictilisib; first compound 0.4 µM): 0.315 | relative viability (IMD-0354 + Pictilisib; first compound 1.265 µM): 0.189 | relative viability (IMD-0354 + Pictilisib; first compound 4 µM): 0.178

NCI-H520
relative viability (CX-5461 + Dasatinib; first compound 0.01 µM): 0.164 | relative viability (CX-5461 + Dasatinib; first compound 0.03162 µM): 0.165 | relative viability (CX-5461 + Dasatinib; first compound 0.1 µM): 0.199 | relative viability (CX-5461 + Dasatinib; first compound 0.3162 µM): 0.166 | relative viability (CX-5461 + Dasatinib; first compound 1 µM): 0.203 | relative viability (IMD-0354 + Trametinib; first compound 0.04 µM): 0.687 | relative viability (IMD-0354 + Trametinib; first compound 0.1265 µM): 0.725 | relative viability (IMD-0354 + Trametinib; first compound 0.4 µM): 0.522 | relative viability (IMD-0354 + Trametinib; first compound 1.265 µM): 0.143 | relative viability (IMD-0354 + Trametinib; first compound 4 µM): 0.149 | relative viability (IMD-0354 + Foretinib; first compound 0.04 µM): 1.04 | relative viability (IMD-0354 + Foretinib; first compound 0.1265 µM): 0.842 | relative viability (IMD-0354 + Foretinib; first compound 0.4 µM): 0.458 | relative viability (IMD-0354 + Foretinib; first compound 1.265 µM): 0.469 | relative viability (IMD-0354 + Foretinib; first compound 4 µM): 0.2 | relative viability (IMD-0354 + Pictilisib; first compound 0.04 µM): 0.372 | relative viability (IMD-0354 + Pictilisib; first compound 0.1265 µM): 0.287 | relative viability (IMD-0354 + Pictilisib; first compound 0.4 µM): 0.195 | relative viability (IMD-0354 + Pictilisib; first compound 1.265 µM): 0.17 | relative viability (IMD-0354 + Pictilisib; first compound 4 µM): 0.117

NCI-H1755
relative viability (CX-5461 + Dasatinib; first compound 0.01 µM): 0.412 | relative viability (CX-5461 + Dasatinib; first compound 0.03162 µM): 0.476 | relative viability (CX-5461 + Dasatinib; first compound 0.1 µM): 0.461 | relative viability (CX-5461 + Dasatinib; first compound 0.3162 µM): 0.422 | relative viability (CX-5461 + Dasatinib; first compound 1 µM): 0.34 | relative viability (IMD-0354 + Trametinib; first compound 0.04 µM): 0.858 | relative viability (IMD-0354 + Trametinib; first compound 0.1265 µM): 0.796 | relative viability (IMD-0354 + Trametinib; first compound 0.4 µM): 0.694 | relative viability (IMD-0354 + Trametinib; first compound 1.265 µM): 0.665 | relative viability (IMD-0354 + Trametinib; first compound 4 µM): 0.228 | relative viability (IMD-0354 + Foretinib; first compound 0.04 µM): 0.912 | relative viability (IMD-0354 + Foretinib; first compound 0.1265 µM): 1.05 | relative viability (IMD-0354 + Foretinib; first compound 0.4 µM): 0.854 | relative viability (IMD-0354 + Foretinib; first compound 1.265 µM): 0.586 | relative viability (IMD-0354 + Foretinib; first compound 4 µM): 0.278 | relative viability (IMD-0354 + Pictilisib; first compound 0.04 µM): 0.562 | relative viability (IMD-0354 + Pictilisib; first compound 0.1265 µM): 0.422 | relative viability (IMD-0354 + Pictilisib; first compound 0.4 µM): 0.335 | relative viability (IMD-0354 + Pictilisib; first compound 1.265 µM): 0.232 | relative viability (IMD-0354 + Pictilisib; first compound 4 µM): 0.22

NCI-H2023
relative viability (CX-5461 + Dasatinib; first compound 0.01 µM): 0.667 | relative viability (CX-5461 + Dasatinib; first compound 0.03162 µM): 0.603 | relative viability (CX-5461 + Dasatinib; first compound 0.1 µM): 0.245 | relative viability (CX-5461 + Dasatinib; first compound 0.3162 µM): 0.497 | relative viability (CX-5461 + Dasatinib; first compound 1 µM): 0.0768 | relative viability (IMD-0354 + Trametinib; first compound 0.04 µM): 0.473 | relative viability (IMD-0354 + Trametinib; first compound 0.1265 µM): 0.504 | relative viability (IMD-0354 + Trametinib; first compound 0.4 µM): 0.366 | relative viability (IMD-0354 + Trametinib; first compound 1.265 µM): 0.0709 | relative viability (IMD-0354 + Trametinib; first compound 4 µM): 0.115 | relative viability (IMD-0354 + Foretinib; first compound 0.04 µM): 0.938 | relative viability (IMD-0354 + Foretinib; first compound 0.1265 µM): 0.867 | relative viability (IMD-0354 + Foretinib; first compound 0.4 µM): 0.571 | relative viability (IMD-0354 + Foretinib; first compound 1.265 µM): 0.225 | relative viability (IMD-0354 + Foretinib; first compound 4 µM): 0.0843 | relative viability (IMD-0354 + Pictilisib; first compound 0.04 µM): 0.301 | relative viability (IMD-0354 + Pictilisib; first compound 0.1265 µM): 0.255 | relative viability (IMD-0354 + Pictilisib; first compound 0.4 µM): 0.202 | relative viability (IMD-0354 + Pictilisib; first compound 1.265 µM): 0.0996 | relative viability (IMD-0354 + Pictilisib; first compound 4 µM): 0.0899

NCI-H2009
relative viability (CX-5461 + Dasatinib; first compound 0.01 µM): 0.341 | relative viability (CX-5461 + Dasatinib; first compound 0.03162 µM): 0.324 | relative viability (CX-5461 + Dasatinib; first compound 0.1 µM): 0.305 | relative viability (CX-5461 + Dasatinib; first compound 0.3162 µM): 0.346 | relative viability (CX-5461 + Dasatinib; first compound 1 µM): 0.262 | relative viability (IMD-0354 + Trametinib; first compound 0.04 µM): 0.312 | relative viability (IMD-0354 + Trametinib; first compound 0.1265 µM): 0.298 | relative viability (IMD-0354 + Trametinib; first compound 0.4 µM): 0.249 | relative viability (IMD-0354 + Trametinib; first compound 1.265 µM): 0.129 | relative viability (IMD-0354 + Trametinib; first compound 4 µM): 0.154 | relative viability (IMD-0354 + Foretinib; first compound 0.04 µM): 1.22 | relative viability (IMD-0354 + Foretinib; first compound 0.1265 µM): 1.18 | relative viability (IMD-0354 + Foretinib; first compound 0.4 µM): 0.817 | relative viability (IMD-0354 + Foretinib; first compound 1.265 µM): 0.406 | relative viability (IMD-0354 + Foretinib; first compound 4 µM): 0.147 | relative viability (IMD-0354 + Pictilisib; first compound 0.04 µM): 1 | relative viability (IMD-0354 + Pictilisib; first compound 0.1265 µM): 0.844 | relative viability (IMD-0354 + Pictilisib; first compound 0.4 µM): 0.618 | relative viability (IMD-0354 + Pictilisib; first compound 1.265 µM): 0.114 | relative viability (IMD-0354 + Pictilisib; first compound 4 µM): 0.0666
